The values below come from patent US20090270450A1, “CHEMICAL COMPOUNDS” (ASTRAZENECA AB, priority 2006, published 2009).

Structures are written as SMILES.

In the test the target is T1, His-tagged kinase domain of CSF-1R (amino acids 568-912) (Homo sapiens, UniProt P07333).
T1 construct: The His-tagged kinase domain of CSF-1R (i.e., amino acids 568-912, GeneBank ID NM_005211); His; made in house; host or cells: baculovirus infected SF+Express insect cells
T1 sequence (P07333 568-912): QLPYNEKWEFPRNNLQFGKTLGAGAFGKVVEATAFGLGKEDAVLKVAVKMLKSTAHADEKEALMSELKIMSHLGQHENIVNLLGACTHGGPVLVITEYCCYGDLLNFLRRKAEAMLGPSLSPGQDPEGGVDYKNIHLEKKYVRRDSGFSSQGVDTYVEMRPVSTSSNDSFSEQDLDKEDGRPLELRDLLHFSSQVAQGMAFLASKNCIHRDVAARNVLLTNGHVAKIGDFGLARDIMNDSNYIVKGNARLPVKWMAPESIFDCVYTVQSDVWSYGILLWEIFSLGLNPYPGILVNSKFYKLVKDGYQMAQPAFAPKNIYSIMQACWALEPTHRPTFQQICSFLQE
The test can be described thus: Assay 1: CSF-1R in vitro AlphaScreen assay. The class given is biochemical. The note with it: phosphorylation of biotinylated pEY substrate; 0.57 nM CSF-1R, 90 μM ATP. Here is the method:
Assay 1: CSF-1R in Vitro AlphaScreen Assay
Activity of purified CSF-1R was determined in vitro using an Amplified Luminescent Proximity Homogeneous Assay (ALPHA)(Perkin Elmer), which measures phosphorylation of the CSF-1R substrate, biotinylated poly-glutamine-tyrosine peptide (PEY-HTRF CisBio 61GT0BLD), as described below. The His-tagged kinase domain of CSF-1R (i.e., amino acids 568-912, GeneBank ID NM_005211; (see page 25 lines 13-19 of WO 2006/067445 for the sequence listing)) was purified from baculovirus infected SF+Express insect cells (1.4×10^6 cells/ml), French pressed and chromatographed through subsequent Qiagen Ni-NTA, Superflow Mono Q HR 10/10, and Superdex 200 SEC columns. Typical yield was 245 μg/l of cell pellet at >95% purity.
The phosphorylation of the CSF-1R substrate in the presence and absence of the compound of interest was determined. Briefly, 0.57 nM of purified CSF-1R, 5 nM pEY substrate, and compound were preincubated in 1× buffer for 30 minutes at 25° C. Reactions were initiated with addition of 90 μM adenosine triphosphate (ATP) in 1× buffer and incubated at 25° C. for 60 minutes and reactions stopped by addition of 5 μl of detection mix consisting of 136 mM NaCl, 102 mM ethylenediamine tetraacetic acid, 1.65 mg/ml BSA, 40 ug/ml Streptavidin donor beads (Perkin Elmer 6760002), 40 ug/ml pTyr100 acceptor beads (Perkin Elmer 6760620). Plates were incubated at 25° C. for 18 hours in the dark. Phosphorylated substrate was detected by an EnVision plate reader (Perkin Elmer) 680 nm excitation, 520-620 nm emission. Data was graphed and IC50s calculated using Excel Fit (Microsoft).
(Bead proximity is the source of the signal in Alpha formats.)
By IC50 is commonly meant the concentration needed to halve the response being measured. Lower therefore signals higher potency. On to `COc1cc2ncc(C(N)=O)c(Nc3ccc(Cl)c(Cl)c3)c2cc1CCCN` [Example 1, 6-(3-Aminopropyl)-4-[(3,4-dichlorophenyl)amino]-7-methoxyquinoline-3-carboxamide], for which the midpoint of inhibition, the IC50, lay at 2 nM.
Take `CCOc1cc2ncc(C(N)=O)c(Nc3cccc(Cl)c3F)c2cc1CCCO` [Example 3, 4-[(3-Chloro-2-fluorophenyl)amino]-7-ethoxy-6-(3-hydroxypropyl)quinoline-3-carboxamide]: half-maximal inhibition (IC50) was put at 5 nM.
In turn, `COc1cc2ncc(C(N)=O)c(Nc3ccc(F)cc3F)c2cc1CCCN1CCCCC1` [Example 8, 4-[(2,4-Difluorophenyl)amino]-7-methoxy-6-(3-piperidin-1-ylpropyl)quinoline-3-carboxamide] displayed an IC50 of 20 nM.
With `COc1cc2ncc(C(N)=O)c(Nc3ccc(F)cc3F)c2cc1CCCN(C)C` [Example 9, 4-[(2,4-Difluorophenyl)amino]-6-[3-(dimethylamino)propyl]-7-methoxyquinoline-3-carboxamide], the IC50 turned out to be 3 nM.
Turning to `COc1cc2ncc(C(N)=O)c(Nc3ccc(F)cc3F)c2cc1CCCNC1CC1` [Example 10, 6-[3-(Cyclopropylamino)propyl]-4-[(2,4-difluorophenyl)amino]-7-methoxyquinoline-3-carboxamide], the IC50 is 23 nM.
Molecule `COc1cc2ncc(C(N)=O)c(Nc3ccc(Cl)c(Cl)c3)c2cc1CCCNC1CC1` [Example 11, 6-[3-(Cyclopropylamino)propyl]-4-[(3,4-dichlorophenyl)amino]-7-methoxyquinoline-3-carboxamide] returned an IC50 of 4 nM.
As for `COc1cc2ncc(C(N)=O)c(Nc3ccc(Cl)c(Cl)c3)c2cc1CCCN1CCCCC1` [Example 12, 4-[(3,4-Dichlorophenyl)amino]-7-methoxy-6-(3-piperidin-1-ylpropyl)quinoline-3-carboxamide], the IC50 was 4 nM.
Molecule `COc1cc2ncc(C(N)=O)c(Nc3ccc(Cl)c(Cl)c3)c2cc1CCCN(C)C` [Example 13, 4-[(3,4-Dichlorophenyl)amino]-6-[3-(dimethylamino)propyl]-7-methoxyquinoline-3-carboxamide] registered an IC50 of 1 nM.
Take `COc1cc2ncc(C(N)=O)c(Nc3ccc(F)cc3F)c2cc1CCCO` [Example 14, 4-[(2,4-Difluorophenyl)amino]-6-(3-hydroxypropyl)-7-methoxyquinoline-3-carboxamide]: 8 nM corresponded to half-maximal inhibition (IC50).
`COc1cc2ncc(C(N)=O)c(Nc3ccc(Cl)c(Cl)c3)c2cc1CCCO` [Example 15, 4-[(3,4-Dichlorophenyl)amino]-6-(3-hydroxypropyl)-7-methoxyquinoline-3-carboxamide] gave an IC50 of 2 nM.
In the case of `CCOc1cc2ncc(C(N)=O)c(Nc3ccc(F)cc3F)c2cc1CCCO` [Example 16, 4-[(2,4-Difluorophenyl)amino]-7-ethoxy-6-(3-hydroxypropyl)quinoline-3-carboxamide] it was 5 nM; in that of `COc1cc2ncc(C(N)=O)c(Nc3ccc(F)c(Cl)c3)c2cc1CCCO` [Example 17, 4-[(3-Chloro-4-fluorophenyl)amino]-6-(3-hydroxypropyl)-7-methoxyquinoline-3-carboxamide], 9 nM.
In the case of `COc1cc2ncc(C(N)=O)c(Nc3cccc(Cl)c3F)c2cc1CCCO` [Example 18, 4-[(3-Chloro-2-fluorophenyl)amino]-6-(3-hydroxypropyl)-7-methoxyquinoline-3-carboxamide], the IC50 was below 3 nM.
In the case of `COc1cc2ncc(C(N)=O)c(Nc3cccc(Cl)c3Cl)c2cc1CCCO` [Example 19, 4-[(2,3-Dichlorophenyl)amino]-6-(3-hydroxypropyl)-7-methoxyquinoline-3-carboxamide], the IC50 was found to be 8 nM.
In turn, `CCc1ccc(Nc2c(C(N)=O)cnc3cc(OC)c(CCCO)cc23)cc1` [Example 20, 4-[(4-Ethylphenyl)amino]-6-(3-hydroxypropyl)-7-methoxyquinoline-3-carboxamide] gave an IC50 of 38 nM.
Molecule `CCc1ccc(Nc2c(C(N)=O)cnc3cc(OC)c(C#CCO)cc23)cc1` [Example 21, 4-[(4-Ethylphenyl)amino]-6-(3-hydroxyprop-1-yn-1-yl)-7-methoxyquinoline-3-carboxamide] returned an IC50 of 18 nM.
`CCOc1cc2ncc(C(N)=O)c(Nc3ccc(CC)cc3)c2cc1CCCO` [Example 22, 7-Ethoxy-4-[(4-ethylphenyl)amino]-6-(3-hydroxypropyl)quinoline-3-carboxamide] registered an IC50 of 33 nM.
With `CCOc1cc2ncc(C(N)=O)c(Nc3ccc(Cl)c(Cl)c3)c2cc1CCCO` [Example 23, 4-[(3,4-Dichlorophenyl)amino]-7-ethoxy-6-(3-hydroxypropyl)quinoline-3-carboxamide], half-maximal inhibition (IC50) was put at 22 nM.
In the case of `CCOc1cc2ncc(C(N)=O)c(Nc3cccc(Cl)c3Cl)c2cc1CCCO` [Example 24, 4-[(2,3-Dichlorophenyl)amino]-7-ethoxy-6-(3-hydroxypropyl)quinoline-3-carboxamide], half-maximal inhibition (IC50) required 26 nM.
Then `CCOc1cc2ncc(C(N)=O)c(Nc3ccc(F)c(Cl)c3)c2cc1CCCO` [Example 25, 4-[(3-Chloro-4-fluorophenyl)amino]-7-ethoxy-6-(3-hydroxypropyl)quinoline-3-carboxamide], with 7 nM; and `COc1cc2ncc(C(N)=O)c(Nc3ccc(Cl)c(Cl)c3)c2cc1C1CC1` [Example 26, 6-Cyclopropyl-4-[(3,4-dichlorophenyl)amino]-7-methoxyquinoline-3-carboxamide], with 140 nM; and `COc1cc2ncc(C(N)=O)c(Nc3ccc(F)cc3F)c2cc1C1CC1` [Example 27, 6-Cyclopropyl-4-[(2,4-difluorophenyl)amino]-7-methoxyquinoline-3-carboxamide], with 65 nM.
In turn, `COc1cc2c(Nc3ccc(F)cc3F)c(C(N)=O)cnc2cc1C1CC1` [Example 28, 7-Cyclopropyl-4-[(2,4-difluorophenyl)amino]-6-methoxyquinoline-3-carboxamide] showed an IC50 of 14 nM.
Then `COc1cc2c(Nc3ccc(Cl)c(Cl)c3)c(C(N)=O)cnc2cc1C1CC1` [Example 29, 7-Cyclopropyl-4-[(3,4-dichlorophenyl)amino]-6-methoxyquinoline-3-carboxamide], with 57 nM.
As for `CCOc1cc2ncc(C(N)=O)c(Nc3ccc(F)cc3F)c2cc1-c1ccc(OC)nc1` [Example 30, 4-[(2,4-Difluorophenyl)amino]-7-ethoxy-6-(6-methoxypyridin-3-yl)quinoline-3-carboxamide], inhibition was half-maximal at 76 nM (IC50).
Then `CCOc1cc2ncc(C(N)=O)c(Nc3ccc(F)cc3F)c2cc1-c1cccnc1` [Example 31, 4-[(2,4-Difluorophenyl)amino]-7-ethoxy-6-pyridin-3-ylquinoline-3-carboxamide], with 43 nM; and `CCOc1cc2ncc(C(N)=O)c(Nc3ccc(F)cc3F)c2cc1-c1c(C)noc1C` [Example 32, 4-[(2,4-Difluorophenyl)amino]-6-(3,5-dimethylisoxazol-4-yl)-7-ethoxyquinoline-3-carboxamide], with 35 nM; and `CCOc1cc2ncc(C(N)=O)c(Nc3ccc(F)cc3F)c2cc1-c1ccc[nH]1` [Example 33, 4-[(2,4-Difluorophenyl)amino]-7-ethoxy-6-(1H-pyrrol-2-yl)quinoline-3-carboxamide], with 96 nM.
